Data taken from patent US9149038B2, “4-amino-6-(heterocyclic)picolinates and 6-amino-2-(heterocyclic)pyrimidine-4-carboxylates and their use as herbicides” (Dow AgroSciences LLC, priority 2013, dated 2015).
Where two headings read alike, the source gives them in different places.

Assays:
[1] = test system: Key Broadleaf Weed and Crop Species; test: Post-Emergent Test II: postemergent herbicidal activity, visual rating after 14 d (Table 7); assay type: in vivo; conditions: post-emergence, 336 h; for pest or weed control at 35 g/ha: 35 g ai/ha; for pest or weed control at 70 g/ha: 70 g ai/ha; for pest or weed control at 140 g/ha: 140 g ai/ha
Method in brief: (§1)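 Greenhouse-grown plants at the first or second true leaf stage (7-21 d, ~15 h photoperiod, 23-29° C day) were sprayed with compound in acetone/DMSO-based aqueous spray containing crop oil concentrate and Triton X-155 at 187 L/ha. Injury versus untreated plants was rated visually after 14 d on a 0-100 scale.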

[2] = test system: Key Grass and Sedge Weeds as well as Grass Crops; test: Post-Emergent Test II: postemergent herbicidal activity, visual rating after 14 d (Table 8); assay type: in vivo; conditions: post-emergence, 336 h; for pest or weed control at 35 g/ha: 35 g ai/ha; for pest or weed control at 70 g/ha: 70 g ai/ha; for pest or weed control at 140 g/ha: 140 g ai/ha
Method in brief: as §1

[3] = lambsquarters (Chenopodium album), read-out: Visual Growth Reduction (%) 14 Days After Application CHEAL
[4] = oilseed rape, canola (Brassica napus), read-out: Visual Growth Reduction (%) 14 Days After Application BRSNN
[5] = redroot pigweed (Amaranthus retroflexus), read-out: Visual Growth Reduction (%) 14 Days After Application AMARE
[6] = sunflower (Helianthus annuus), read-out: Visual Growth Reduction (%) 14 Days After Application HELAN
[7] = velvetleaf (Abutilon theophrasti), read-out: Visual Growth Reduction (%) 14 Days After Application ABUTH
[8] = wild poinsettia (Euphorbia heterophylla), read-out: Visual Growth Reduction (%) 14 Days After Application EPHHL
[9] = barnyardgrass (Echinochloa crus-galli), read-out: Visual Growth Reduction (%) 14 Days After Application ECHCG
[10] = giant foxtail (Setaria faberi), read-out: Visual Growth Reduction (%) 14 Days After Application SETFA
[11] = maize, corn (Zea mays), read-out: Visual Growth Reduction (%) 14 Days After Application ZEAMX
[12] = rice (Oryza sativa), read-out: Visual Growth Reduction (%) 14 Days After Application ORYSA
[13] = wheat, spring (Triticum aestivum), read-out: Visual Growth Reduction (%) 14 Days After Application TRZAS
[14] = yellow nutsedge (Cyperus esculentus), read-out: Visual Growth Reduction (%) 14 Days After Application CYPES

COC(=O)c1nc(-c2ccc3c(c2)OC(C)(C)O3)nc(N)c1OC [Compound 67]
pest or weed control at 35 g/ha [1, 3]: 0 to 29% | pest or weed control at 70 g/ha [1, 3]: 0 to 29% | pest or weed control at 140 g/ha [1, 3]: 0 to 29% | pest or weed control at 35 g/ha [1, 4]: 0 to 29% | pest or weed control at 70 g/ha [1, 4]: 0 to 29% | pest or weed control at 140 g/ha [1, 4]: 0 to 29% | pest or weed control at 35 g/ha [1, 5]: 0 to 29% | pest or weed control at 70 g/ha [1, 5]: 0 to 29% | pest or weed control at 140 g/ha [1, 5]: 0 to 29% | pest or weed control at 35 g/ha [1, 6]: 0 to 29% | pest or weed control at 70 g/ha [1, 6]: 0 to 29% | pest or weed control at 140 g/ha [1, 6]: 0 to 29% | pest or weed control at 35 g/ha [1, 7]: 0 to 29% | pest or weed control at 70 g/ha [1, 7]: 0 to 29% | pest or weed control at 140 g/ha [1, 7]: 0 to 29% | pest or weed control at 35 g/ha [1, 8]: 60 to 74% | pest or weed control at 70 g/ha [1, 8]: 95 to 100% | pest or weed control at 140 g/ha [1, 8]: 95 to 100% | pest or weed control at 35 g/ha [2, 9]: 0 to 29% | pest or weed control at 70 g/ha [2, 9]: 45 to 59% | pest or weed control at 140 g/ha [2, 9]: 75 to 84% | pest or weed control at 35 g/ha [2, 10]: 0 to 29% | pest or weed control at 70 g/ha [2, 10]: 45 to 59% | pest or weed control at 140 g/ha [2, 10]: 60 to 74% | pest or weed control at 35 g/ha [2, 11]: 0 to 29% | pest or weed control at 70 g/ha [2, 11]: 60 to 74% | pest or weed control at 140 g/ha [2, 11]: 60 to 74% | pest or weed control at 35 g/ha [2, 12]: 0 to 29% | pest or weed control at 70 g/ha [2, 12]: 0 to 29% | pest or weed control at 140 g/ha [2, 12]: 0 to 29% | pest or weed control at 35 g/ha [2, 13]: 0 to 29% | pest or weed control at 70 g/ha [2, 13]: 0 to 29% | pest or weed control at 140 g/ha [2, 13]: 0 to 29% | pest or weed control at 35 g/ha [2, 14]: 0 to 29% | pest or weed control at 70 g/ha [2, 14]: 0 to 29% | pest or weed control at 140 g/ha [2, 14]: 45 to 59%
